US20240368135A1 (VERTEX PHARMACEUTICALS INCORPORATED, priority 2021, published 2024)
Read-outs that look alike come from different tables or passages of the source.

Biological target: human NaV 1.8 (Homo sapiens, UniProt Q9Y5Y9)
Experiment: E-VIPR assay detecting and measuring NaV inhibition properties
Assay type: cell-based
Conditions: HEK cells expressing truncated human NaV 1.8
Procedure, shortened: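 Membrane potential was followed by coumarin/oxonol FRET during electrical field stimulation of matrigel-seeded HEK cells carrying truncated human NaV1.8 plus KIR2.1. Dosing used 11 points, 3-fold steps, top 300 nM final, 0.625% DMSO, with or without 25% human serum.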

[1] = no human serum, read-out: IC50 in the E-VIPR Assay

Chain of human NaV 1.8 (Q9Y5Y9 126-399 limits assumed): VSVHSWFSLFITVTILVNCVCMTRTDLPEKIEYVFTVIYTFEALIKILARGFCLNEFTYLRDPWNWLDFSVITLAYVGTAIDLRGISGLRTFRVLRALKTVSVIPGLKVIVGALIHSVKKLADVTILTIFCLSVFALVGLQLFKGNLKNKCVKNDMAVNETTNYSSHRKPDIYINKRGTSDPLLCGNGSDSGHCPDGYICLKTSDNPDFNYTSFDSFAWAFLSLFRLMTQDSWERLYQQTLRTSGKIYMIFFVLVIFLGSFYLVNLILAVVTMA
Chain of human NaV 1.8 (Q9Y5Y9 660-890 limits assumed): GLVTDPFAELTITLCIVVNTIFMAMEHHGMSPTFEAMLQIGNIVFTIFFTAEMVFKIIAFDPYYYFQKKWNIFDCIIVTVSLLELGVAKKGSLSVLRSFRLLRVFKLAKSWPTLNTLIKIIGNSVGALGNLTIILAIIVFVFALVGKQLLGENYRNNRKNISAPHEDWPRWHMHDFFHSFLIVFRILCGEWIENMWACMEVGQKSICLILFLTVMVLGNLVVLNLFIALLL
Chain of human NaV 1.8 (Q9Y5Y9 1148-1722 limits assumed): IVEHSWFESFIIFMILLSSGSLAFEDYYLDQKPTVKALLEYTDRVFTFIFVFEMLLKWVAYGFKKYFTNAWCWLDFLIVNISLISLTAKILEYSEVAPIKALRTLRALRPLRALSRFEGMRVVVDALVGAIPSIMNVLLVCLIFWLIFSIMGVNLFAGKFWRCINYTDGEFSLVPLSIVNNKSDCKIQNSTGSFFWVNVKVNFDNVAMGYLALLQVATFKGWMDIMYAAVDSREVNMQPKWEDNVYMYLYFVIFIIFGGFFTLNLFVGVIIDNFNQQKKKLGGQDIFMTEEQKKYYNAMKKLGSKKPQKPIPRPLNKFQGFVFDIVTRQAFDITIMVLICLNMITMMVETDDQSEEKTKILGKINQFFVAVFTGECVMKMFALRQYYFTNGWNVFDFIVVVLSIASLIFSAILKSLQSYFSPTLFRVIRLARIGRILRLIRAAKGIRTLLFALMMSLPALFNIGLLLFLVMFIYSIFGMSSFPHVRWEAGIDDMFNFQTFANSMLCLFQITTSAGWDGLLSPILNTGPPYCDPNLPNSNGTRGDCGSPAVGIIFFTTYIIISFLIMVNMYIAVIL

IC50 [1] | IC50 (in the presence of human serum (compound numbers followed by *), read-out: IC50 in the E-VIPR Assay, performed in the presence of human serum) | Structure (SMILES)
≥ 1000 nM | – | Cc1nn(C(F)F)cc1NC(=O)[C@@H]1O[C@@](C)(C(F)(F)F)[C@@H](C)[C@H]1c1ccc(F)c(F)c1OCC(=O)O [Compound 603, 2-(6-((2R,3S,4S,5R)-2-((1-(difluoromethyl)-3-methyl-1H-pyrazol-4-yl)carbamoyl)-4,5-dimethyl-5-(trifluoromethyl)tetrahydrofuran-3-yl)-2,3-difluorophenoxy)acetic acid]
< 10 nM | – | COc1c([C@H]2[C@H](C(=O)Nc3ccnc(N4CCN(C)CC4=O)c3)O[C@@](C)(C(F)(F)F)[C@H]2C)ccc(F)c1F [Compound 379, (2R,3S,4S,5R)-3-(3,4-difluoro-2-methoxyphenyl)-4,5-dimethyl-N-(2-(4-methyl-2-oxopiperazin-1-yl)pyridin-4-yl)-5-(trifluoromethyl)tetrahydrofuran-2-carboxamide]
≥ 1000 nM | – | COc1c([C@H]2[C@H](C(=O)NCCc3cnn(C)c3)O[C@@](C)(C(F)(F)F)[C@H]2C)ccc(F)c1F [Compound 283, (2R,3S,4S,5R)-3-(3,4-difluoro-2-methoxyphenyl)-4,5-dimethyl-N-(2-(1-methyl-1H-pyrazol-4-yl)ethyl)-5-(trifluoromethyl)tetrahydrofuran-2-carboxamide]
100 to 1000 nM | – | C[C@H]1[C@@H](c2ccc(F)c(F)c2OC(F)F)[C@H](C(=O)Nc2ccc(CC(C)(C)O)nc2)O[C@@]1(C)C(F)(F)F (single isomer, unassigned) [Compound 462]
10 to 100 nM | – | COc1c([C@H]2[C@H](C(=O)Nc3ccnc(N4CCC[C@@H]4CO)c3)O[C@@](C)(C(F)(F)F)[C@H]2C)ccc(F)c1F [Compound 520, (2R,3S,4S,5R)-3-(3,4-difluoro-2-methoxy-phenyl)-N-[2-[(2R)-2-(hydroxymethyl)pyrrolidin-1-yl]-4-pyridyl]-4,5-dimethyl-5-(trifluoromethyl)tetrahydrofuran-2-carboxamide]
≥ 1000 nM | – | C[C@@H]1[C@H](c2ccc(F)c(F)c2OC(F)F)[C@@H](C(=O)Nc2ccn(C)c(=O)c2)O[C@]1(C)C(F)(F)F (single isomer, unassigned) [Compound 77]
≥ 1000 nM | – | COc1c([C@H]2[C@H](C(=O)Nc3ccc(-c4ccccn4)nc3)O[C@@](C)(C(F)(F)F)[C@H]2C)ccc(F)c1F [Compound 396, (2R,3S,4S,5R)-N-([2,2′-bipyridin]-5-yl)-3-(3,4-difluoro-2-methoxyphenyl)-4,5-dimethyl-5-(trifluoromethyl)-tetrahydrofuran-2-carboxamide]

The next lines start with the compound.

Structure (SMILES) | IC50 [1] | IC50 (in the presence of human serum (compound numbers followed by *), read-out: IC50 in the E-VIPR Assay, performed in the presence of human serum)
COc1c(C2C(C(=O)Nc3ccnc(C(O)C(C)O)c3)OC(C)(C(F)(F)F)C2C)ccc(F)c1F (stereo not shown) [Compound 208, 3-(3,4-difluoro-2-methoxy-phenyl)-N-[2-(1,2-dihydroxypropyl)-4-pyridyl]-4,5-dimethyl-5-(trifluoromethyl)tetrahydrofuran-2-carboxamide] | < 10 nM | –
COc1c([C@H]2[C@H](C(=O)Nc3ccc(-n4ccnc4)nc3)O[C@@](C)(C(F)(F)F)[C@H]2C)ccc(F)c1F [Compound 401, (2R,3S,4S,5R)-N-(6-(1H-imidazol-1-yl)pyridin-3-yl)-3-(3,4-difluoro-2-methoxyphenyl)-4,5-dimethyl-5-(trifluoromethyl)-tetrahydrofuran-2-carboxamide] | 10 to 100 nM | –
COCC(c1cc(NC(=O)[C@@H]2O[C@@](C)(C(F)(F)F)[C@@H](C)[C@H]2c2ccc(F)c(F)c2OC)ccn1)N(C)C (single isomer, unassigned) [Compound 424, rel-(2R*,3S*,4S*,5R*)-3-(3,4-difluoro-2-methoxyphenyl)-N-(2-(1-(dimethylamino)-2-methoxyethyl)pyridin-4-yl)-4,5-dimethyl-5-(trifluoromethyl)-tetrahydrofuran-2-carboxamide] | < 10 nM | –
Cc1nn(C(F)F)cc1NC(=O)[C@@H]1O[C@@](C)(C(F)(F)F)[C@@H](C)[C@H]1c1ccc(F)c(F)c1OCCN1CC2(COC2)C1 [Compound 598, (2R,3S,4S,5R)-3-(2-(2-(2-oxa-6-azaspiro[3.3]heptan-6-yl)ethoxy)-3,4-difluorophenyl)-N-(1-(difluoromethyl)-3-methyl-1H-pyrazol-4-yl)-4,5-dimethyl-5-(trifluoromethyl)tetrahydrofuran-2-carboxamide] | 10 to 100 nM | –
COc1c([C@H]2[C@H](C(=O)Nc3ccnc(C(C)(N)CO)c3)O[C@@](C)(C(F)(F)F)[C@H]2C)ccc(F)c1F (single isomer, unassigned) [Compound 358, rel-(2R*,3S*,4S*,5R*)-N-(2-(2-amino-1-hydroxypropan-2-yl)pyridin-4-yl)-3-(3,4-difluoro-2-methoxyphenyl)-4,5-dimethyl-5-(trifluoromethyl)-tetrahydrofuran-2-carboxamide] | < 10 nM | –
CNC(COC)c1ccc(NC(=O)[C@@H]2O[C@@](C)(C(F)(F)F)[C@@H](C)[C@H]2c2ccc(F)c(F)c2OC)cn1 (single isomer, unassigned) [Compound 414, rel-(2R*,3S*,4S*,5R*)-3-(3,4-difluoro-2-methoxyphenyl)-N-(6-(2-methoxy-1-(methylamino)ethyl)-pyridin-3-yl)-4,5-dimethyl-5-(trifluoromethyl)-tetrahydrofuran-2-carboxamide] | 100 to 1000 nM | –
COc1c([C@H]2[C@H](C(=O)Nc3ccnc(O[C@H]4COC[C@H]4O)n3)O[C@@](C)(C(F)(F)F)[C@H]2C)ccc(F)c1F (single isomer, unassigned) [Compound 242, rel-(2R*,3S*,4S*,5R*)-3-(3,4-difluoro-2-methoxyphenyl)-N-(2-(((3S,4R)-4-hydroxytetrahydrofuran-3-yl)oxy)pyrimidin-4-yl)-4,5-dimethyl-5-(trifluoromethyl)tetrahydrofuran-2-carboxamide] | 10 to 100 nM | –
COc1c([C@H]2[C@H](C(=O)Nc3ccc4cnnn4c3)O[C@@](C)(C(F)(F)F)[C@H]2C)ccc(F)c1C(F)F (stereo in doubt) [Compound 161, rel-(2R,3S,4S,5R)—N-([1,2,3]triazolo[1,5-a]pyridin-6-yl)-3-(3-(difluoromethyl)-4-fluoro-2-methoxyphenyl)-4,5-dimethyl-5-(trifluoromethyl)tetrahydrofuran-2-carboxamide] | < 10 nM | –
C[C@H]1[C@@H](c2ccc(F)c(F)c2OC(F)F)[C@H](C(=O)Nc2cccnc2)O[C@@]1(C)C(F)(F)F (single isomer, unassigned) [Compound 65] | – | 10 to 100 nM
COc1c([C@H]2[C@H](C(=O)NC3CCN(C(N)=O)CC3)O[C@@](C)(C(F)(F)F)[C@H]2C)ccc(F)c1F [Compound 303, 4-((2R,3S,4S,5R)-3-(3,4-difluoro-2-methoxyphenyl)-4,5-dimethyl-5-(trifluoromethyl)tetrahydrofuran-2-carboxamido)piperidine-1-carboxamide] | ≥ 1000 nM | –
COc1c(C2C(C(=O)Nc3ccnc(S(C)(=N)=O)c3)OC(C)(C(F)(F)F)C2C)ccc(F)c1F (single isomer, unassigned) [Compound 56, 3-(3,4-difluoro-2-methoxy-phenyl)-4,5-dimethyl-N-[2-(methylsulfonimidoyl)-4-pyridyl]-5-(trifluoromethyl)tetrahydrofuran-2-carboxamide] | 100 to 1000 nM | –
COc1c(C2C(C(=O)Nc3ccnc(C(O)C(C)O)c3)OC(C)(C(F)(F)F)C2C)ccc(F)c1C (single isomer, unassigned) [Compound 144] | < 10 nM | –
